Data from paper PMC12040169 (PLOS Biology, 2025).

assay: in vitro; settings: human, hela cells, % viability

Compound	viability at 28.5 h, 10 µM [%]
Cc1ccc(N(CC(O)CN2C(=O)NC(C)(C)C2=O)S(=O)(=O)c2ccccc2)cc1 (stereo not drawn) [CBK263580]	99.2
COc1ccccc1N(CC(O)CN1C(=O)NC(C)(C)C1=O)S(=O)(=O)c1ccc(C)cc1 (stereo not drawn) [CBK263581]	99.4
Oc1ccc2ccccc2c1Cc1c(O)ccc2ccccc12 [CBK263583]	72.9
O=C(NC(Nc1cccc(C(F)(F)F)c1)C(=O)c1ccccc1)c1ccc(Cl)cc1 (stereo not drawn) [CBK263585]	89.5
[O-][n+]1c2c([n+]([O-])c3c1CCCC3)CCCCC2 [CBK263586]	95.5
O=C(c1ccc(S(=O)(=O)N2CCCC2)cc1)N1CCN(C/C=C/c2ccccc2)CC1 [CBK263587]	103
O=C(NCc1ccc2c(c1)OCO2)c1ccc(S(=O)(=O)N2CCCC2)cc1 [CBK263590]	108
COc1ccc(N2C(=O)CC(NCCNc3ccc([N+](=O)[O-])cn3)C2=O)cc1 (stereo not drawn) [CBK263593]	85.3
O=C(COc1ccccc1)Nc1ccccc1CO [CBK263596]	97.9
O=C(O)CCC(NC(=O)c1ccc(Cl)cc1)C(=O)O (stereo not drawn) [CBK263597]	94.2
O=C(COc1ccc2ccccc2c1)Nc1ccc(Cl)cc1Cl [CBK263598]	106
Cc1ccc(OCC(=O)Nc2ccccc2CO)cc1 [CBK263600]	88.7
COC(=O)CC(C)(C)/C(C)=N/NS(=O)(=O)c1ccc(C)cc1 [CBK263602]	86.7
O=C(O)c1ccc(N2C(=O)c3ccc(Oc4ccc(S(=O)(=O)c5ccc(C(=O)O)cc5)cc4)cc3C2=O)cc1 [CBK263603]	96.8
O=C(COc1cccc([N+](=O)[O-])c1)Nc1cc(C(=O)O)cc(C(=O)O)c1 [CBK263604]	114
N=C1NC(=O)/C(=C/c2ccc(OS(=O)(=O)c3ccc4ccccc4c3)cc2)S1 [CBK263605]	106
O=C(O)c1ccc(S(=O)(=O)c2ccc(Oc3ccc4c(c3)C(=O)N(c3cccc(C(=O)O)c3)C4=O)cc2)cc1 [CBK263608]	96.7
COc1cc(/C=C2\SC(=N)NC2=O)cc(Br)c1OS(=O)(=O)c1ccc(C)cc1 [CBK263609]	95.1
N=C1NC(=O)/C(=C/c2cccc(OCc3cccc4ccccc34)c2)S1 [CBK263610]	93.9
CC1=NN(c2ccc(S(N)(=O)=O)cc2)C(=O)/C1=C\c1ccc(-c2ccc(Cl)c([N+](=O)[O-])c2)o1 [CBK263612]	98.8
O=C(/C=C/c1ccc([N+](=O)[O-])cc1)Nc1ccc(O)cc1C(=O)O [CBK263613]	81
O=C(/C=C/c1cccc([N+](=O)[O-])c1)Nc1ccc(O)cc1C(=O)O [CBK263615]	87.3
CC(NC(=O)/C(=C\c1ccc(Cl)cc1)NC(=O)c1ccco1)C(=O)O (stereo not drawn) [CBK263617]	93
Cc1nc(SCC(=O)O)nc(O)c1Oc1ccccc1 [CBK263621]	103
OCCN(CC#CCC(O)(c1ccccc1)c1ccccc1)CCO [CBK263623]	94.1
O=C(NCCN1CCOCC1)c1cc(-c2cccc(Br)c2)nc2ccccc12 [CBK263625]	90.2
COc1cc2nc3c4ccccc4n(CC(=O)O)c3nc2cc1OC [CBK263626]	86.8

Compound	viability at 28.5 h, 10 µM [%]
COc1ccc(OC(C)C(=O)Nc2cc(OC)c(Cl)cc2OC)cc1 (stereo not drawn) [CBK263627]	96
COC(=O)CCNc1nc(-c2ccc(Br)cc2)nc2ccccc12 [CBK263628]	97.9
O=C(NCCCN1CCOCC1)c1c(Cl)cccc1Cl [CBK263631]	93
COc1ccc(CN2CCN(Cc3cc(Br)ccc3O)CC2)cc1OC [CBK263632]	95.5
O=C(CCCN1C(=O)/C(=C\c2cccs2)SC1=S)Nc1cccc(C(=O)O)c1 [CBK263636]	98.4
O=C(c1cccnc1)N1CCN(CCN2C(=O)C3C4C=CC(C4)C3C2=O)CC1 (stereo not drawn) [CBK263639]	98.2
CC(C)(C)c1ccc(/C=C/C(=O)n2cccn2)cc1 [CBK263645]	85.7
COc1ccc(C2CC(=O)C(=CNCCCN3CCOCC3)C(=O)C2)cc1 (stereo not drawn) [CBK263647]	84.9
Cc1ccc(C)c(NC(=O)c2sc3cc(C)ccc3c2Cl)c1 [CBK263648]	90.3
Cc1ccnc(NS(=O)(=O)c2ccc(NC(=O)c3cc(-c4ccc(Br)cc4)nc4ccccc34)cc2)n1 [CBK263650]	96.8
CCOc1ccc(/N=c2\scc(-c3ccc(OC)c(Br)c3)n2CCc2ccccc2)cc1 [CBK263654B]	74.7
COc1cc(/C=C2/SC(=S)N(CCC(=O)N3CCN(C)CC3)C2=O)cc(OC)c1OC [CBK263656]	88.1
COc1ccc(NC(=O)CSc2nc(O)cc(-c3ccccc3)n2)cc1OC [CBK263657]	96.1
Cc1cc(OCC(=O)NCc2cccnc2)cc(C)c1Cl [CBK263658]	86.5
CCNC(=S)N1CCN(CCNC=C2C(=O)CC(C)(C)CC2=O)CC1 [CBK263661]	90.1
Oc1ccc(Br)cc1CN1CCN(Cc2cccc3ccccc23)CC1 [CBK263662]	87
CCCCOC(=O)c1ccc(NC(=O)c2c(Cl)cccc2Cl)cc1 [CBK263664]	88.2
O=C1CC(c2ccco2)CC(=O)C1=CNCCN1CCNCC1 (stereo not drawn) [CBK263668]	99.7
O=C(CCCN1C(=O)/C(=C\c2cccs2)SC1=S)Nc1cc(Cl)ccc1O [CBK263673]	99.5
O=C(O)c1cc(-c2cccnc2)nc2ccc(Br)cc12 [CBK263674]	105
O=C(O)C1C2CCC(O2)C1C(=O)Nc1ccc2c(c1)OCCO2 (stereo not drawn) [CBK263677]	103
Cc1ccc(CN2C(=O)CSC2c2cn(-c3ccccc3)nc2-c2ccccc2)cc1 (stereo not drawn) [CBK263678]	94.5
Cc1ccc(C(=O)O)cc1NC(=O)C1CCCCC1C(=O)O (stereo not drawn) [CBK263679]	93.5
COc1ccc(C(=O)NC(Nc2ccccc2)C(Cl)(Cl)Cl)cc1OC (stereo not drawn) [CBK263680]	106
O=C(O)CCC(=O)c1cccc([N+](=O)[O-])c1 [CBK263681]	101
Cc1ccc2c(Cl)c(-c3nnc(-c4ccc(Cl)cc4)o3)sc2c1 [CBK263682]	106
CCC12CN3CC(CC)(CN(C1)C3c1ccc([N+](=O)[O-])cc1)C2=O (stereo not drawn) [CBK263689]	108

Compound	viability at 28.5 h, 10 µM [%]
O=C(CCCOc1ccccc1)Nc1ccc([N+](=O)[O-])cc1 [CBK263690]	97.9
O=C(NC(=S)Nc1ccc2oc(-c3cccc4ccccc34)nc2c1)c1ccco1 [CBK263691]	95.5
c1ccc(CCNc2c3c(nc4ccccc24)CCC3)cc1 [CBK263693C]	92.2
O=C1c2ccccc2C(=O)N1CSc1nnc(SCN2C(=O)c3ccccc3C2=O)s1 [CBK263694]	96.9
CC(C)(C)c1ccc(/C=N/NC(=O)CCSc2ccc(Cl)cc2)cc1 [CBK263696]	105
O=C(Nc1cccc(C(=O)O)c1)/C(=C\c1ccc2c(c1)OCO2)NC(=O)c1ccccc1 [CBK263697]	113
CN1CN=C2SC3(COC(c4cccc(Br)c4)OC3)C(=O)N2C1 (stereo not drawn) [CBK263700]	93.1
O=C(/C=C/c1ccccc1)ONC(=O)c1ccc(Cl)cc1 [CBK263702]	111
COc1ccc(C2Nc3ccccc3C(=O)N2c2ccc(C)cc2)cc1Cn1nc(C)c([N+](=O)[O-])c1C (stereo not drawn) [CBK263703]	106
O=C(Nc1cccc(C(=O)O)c1)/C(=C\c1ccccc1)NC(=O)c1ccccc1Cl [CBK263710]	90.4
Cc1ccc(-c2nn(-c3cc(N4CCN(CCO)CC4)ccc3[N+](=O)[O-])c(=O)c3ccccc23)cc1C [CBK263713]	82.6
COC(=O)c1cc(Br)ccc1NC(=O)COc1ccccc1C [CBK263715]	89.4
CC1CCN(S(=O)(=O)c2cc(S(=O)(=O)N3CCC(C)CC3)c3cccc4c3c2NC4=O)CC1 [CBK263716]	91.2
O=C(Nc1cccc(C(=O)O)c1)/C(=C\c1ccc2c(c1)OCO2)NC(=O)c1ccc(Br)o1 [CBK263720]	99
O=C(NCCCNc1ccc(C(F)(F)F)cc1[N+](=O)[O-])c1ccc(Cl)cc1 [CBK263721]	99
O=C(Nc1ccc(C(=O)O)cc1)/C(=C\c1ccco1)NC(=O)c1ccccc1Cl [CBK263726]	113
CN(C)CCNc1c2c(nc3ccccc13)CCC2 [CBK263732C]	98.1
COCCN(CCOC)Cc1c(O)ccc2c3c(c(=O)oc12)CCC3 [CBK263733]	75.4
COc1ccc(/C=N/NC(=O)c2cc[nH]n2)cc1CSc1nc2ccccc2s1 [CBK263734]	103
N/C(=N\OC(=O)COc1ccc2ccccc2c1)c1ccncc1 [CBK263737]	89.1
NC(=O)c1ccc(NC(=O)COc2ccc3ccccc3c2)cc1 [CBK263738]	101
CC(C)C12CN3CC(C(C)C)(CN(C1)C3c1c[nH]c3ccccc13)C2=O (stereo not drawn) [CBK263740]	96.1
CS(=O)(=O)NCCCNc1ccc(C(F)(F)F)cc1[N+](=O)[O-] [CBK263741]	73.1
O=C(/C=C/c1ccccc1)NC(=S)Nc1cccc(-c2nc3ncccc3o2)c1 [CBK263742]	103
Cc1ccccc1Nc1nnc(-c2ccc(C(=O)NCCO)cc2)c2ccccc12 [CBK263743]	86.4

same assay, conditions: human, hela cells, % viability, bulk resorufin, single well

Compound	viability at 28.5 h, 10 µM [%]
Cc1cc(C)cc(N2C(=O)NC(=O)/C(=C\c3ccccc3Br)C2=O)c1 [CBK263588]	100
CCOc1cc(C=C2C(=O)NC(=O)NC2=O)ccc1OS(=O)(=O)c1ccc([N+](=O)[O-])cc1 [CBK263614]	82.9
COc1ccc(CN2CCN(Cc3cc(Br)ccc3O)CC2)cc1 [CBK263640]	99.4
O=C(COc1ccc(C=C2C(=O)NC(=O)NC2=O)cc1)NCC1CCCO1 (stereo not drawn) [CBK263709]	91.9
O=C(COc1ccc(C=C2C(=O)NC(=O)NC2=O)cc1)NCc1ccccc1 [CBK263736]	93.3
